# Patent US7067624B2, “Antimicrobial proteins” (Commonwealth Scientific and Industrial Research Organisation, priority 1996, dated 2006)
# Read-outs that look alike come from different tables or passages of the source. Where no end group is shown, it is not given here.
# Legend:
# fungi and bacteria = assay: Antifungal and antibacterial activity bioassays, results in words; format: cell-based; details: for antimicrobial / antifungal activity (in words): bioassays as in Example 2
# Candida albicans = assay: Antifungal growth inhibition bioassay (96-well, A600); format: cell-based
# Ceratocystis paradoxa = assay: as above; format: cell-based
# Cercospora nicotianae = assay: as above; format: cell-based
# [1] = test system: Clavibacter michiganensis; assay: Antibacterial growth inhibition bioassay (96-well, A600); format: cell-based
# Chalara elegans = assay: Antifungal growth inhibition bioassay (96-well, A600); format: cell-based
# Phytophthora cryptogea = assay: as above; format: cell-based
# [2] = test system: Phytophthora parasitica nicotiana; assay: as above; format: cell-based
# Ralstonia solanacearum = format: cell-based
# [3] = test system: Pseudomonas syringae tabaci; assay: Antibacterial growth inhibition bioassay (96-well, A600); format: cell-based
# Saccharomyces cerevisiae = assay: Antifungal growth inhibition bioassay (96-well, A600); format: cell-based
# Escherichia coli = assay: Antibacterial growth inhibition bioassay (96-well, A600); format: cell-based
# Alternaria helianthi = details: Table 1, no added Ca2+
# [4] = Table 1, 1 mM Ca2+ in test medium
substance,measurement,setting,value
RQRDPQQQAEQAQKRAQRRETE [MiAMP2c pep1],antimicrobial / antifungal activity (in words),fungi and bacteria,little or no activity
same,"IC50 values, Ss",Sclerotinia sclerotiorum,>50 µg/mL
PRHMQIAQQRAERRAEKEKRKQQKR [MiAMP2c pep2],antimicrobial / antifungal activity (in words),fungi and bacteria,inhibitory activity against a variety of fungi
same,"IC50 values, Foc",Fusarium oxysporum,10 to 20 µg/mL
same,"IC50 values, Ss",Sclerotinia sclerotiorum,50 µg/mL
same,"IC50 values, Vd",Verticillium dahliae,10 to 20 µg/mL
same,"IC50 values, Lm",Leptosphaeria maculans,10 to 20 µg/mL
MiAMP2c: 47-amino-acid antimicrobial protein purified from Macadamia integrifolia seeds; amino acids 118 to 164 of clone 3 (SEQ ID NO: 5) (RKQQKRYEEQQREDEEKYEERMKEGDNKRDPQQREYEDCRRHCEQQE; Partial mature peptide),IC50 + Ca^2+,Candida albicans; [4],>50 µg/mL
same,IC50 (concentration at which 50% inhibition of growth was observed),"Candida albicans; Table 1, no added Ca2+",>50 µg/mL
same,IC50 + Ca^2+,Ceratocystis paradoxa; [4],>50 µg/mL
same,IC50 (concentration at which 50% inhibition of growth was observed),"Ceratocystis paradoxa; Table 1, no added Ca2+",20 to 50 µg/mL
same,"IC50 values, Cp","Ceratocystis paradoxa; Table 2, media A without added Ca2+",20 to 50 µg/mL
same,IC50 + Ca^2+,Cercospora nicotianae; [4],5 to 10 µg/mL
same,IC50 (concentration at which 50% inhibition of growth was observed),"Cercospora nicotianae; Table 1, no added Ca2+",5 to 10 µg/mL
same,IC50 + Ca^2+,[1]; [4],>50 µg/mL
same,IC50 (concentration at which 50% inhibition of growth was observed),"[1]; Table 1, no added Ca2+",50 µg/mL
same,IC50 + Ca^2+,Chalara elegans; [4],10 to 20 µg/mL
same,IC50 (concentration at which 50% inhibition of growth was observed),"Chalara elegans; Table 1, no added Ca2+",2 to 5 µg/mL
same,IC50 + Ca^2+,Phytophthora cryptogea; [4],10 to 25 µg/mL
same,IC50 (concentration at which 50% inhibition of growth was observed),"Phytophthora cryptogea; Table 1, no added Ca2+",5 to 10 µg/mL
same,IC50 + Ca^2+,[2]; [4],>50 µg/mL
same,IC50 (concentration at which 50% inhibition of growth was observed),"[2]; Table 1, no added Ca2+",10 to 20 µg/mL
same,IC50 + Ca^2+,Ralstonia solanacearum; [4],>50 µg/mL
same,IC50 (concentration at which 50% inhibition of growth was observed),"Ralstonia solanacearum; Table 1, no added Ca2+",>50 µg/mL
same,IC50 + Ca^2+,[3]; [4],>50 µg/mL
same,IC50 (concentration at which 50% inhibition of growth was observed),"[3]; Table 1, no added Ca2+",>50 µg/mL
same,IC50 + Ca^2+,Saccharomyces cerevisiae; [4],>50 µg/mL
same,IC50 (concentration at which 50% inhibition of growth was observed),"Saccharomyces cerevisiae; Table 1, no added Ca2+",20 to 50 µg/mL
same,IC50 + Ca^2+,Escherichia coli; [4],>50 µg/mL
same,IC50 (concentration at which 50% inhibition of growth was observed),"Escherichia coli; Table 1, no added Ca2+",>50 µg/mL
same,effect of Ca2+ on inhibitory activity (in words),fungi and bacteria; 1 mM Ca2+ in the test medium,greatly reduced (although not eliminated)
same,IC50 (concentration at which 50% inhibition of growth was observed),Alternaria helianthi,5 to 10 µg/mL
same,IC50 + Ca^2+,"Fusarium oxysporum; Table 1, Fusarium oxysporum, 1 mM Ca2+ in test medium",20 to 50 µg/mL
same,"IC50 values, Foc","Fusarium oxysporum; Table 2, Fusarium oxysporum, media A without added Ca2+",10 µg/mL
same,IC50 + Ca^2+,"Sclerotinia sclerotiorum; Table 1, Sclerotinia sclerotiorum, 1 mM Ca2+ in test medium",>50 µg/mL
same,IC50 (concentration at which 50% inhibition of growth was observed),"Sclerotinia sclerotiorum; Table 1, Sclerotinia sclerotiorum, no added Ca2+",20 to 50 µg/mL
same,"IC50 values, Ss","Sclerotinia sclerotiorum; Table 2, Sclerotinia sclerotiorum, media A without added Ca2+",20 to 50 µg/mL
same,IC50 + Ca^2+,"Verticillium dahliae; Table 1, Verticillium dahliae, 1 mM Ca2+ in test medium",>50 µg/mL
same,IC50 (concentration at which 50% inhibition of growth was observed),"Verticillium dahliae; Table 1, Verticillium dahliae, no added Ca2+",5 to 10 µg/mL
same,"IC50 values, Vd","Verticillium dahliae; Table 2, Verticillium dahliae, media A without added Ca2+",5 to 10 µg/mL
